Patent US20080262235A1, “Method and Apparatus for Producing Oxidized Compound” (priority 2005, published 2008)
Where “and” joins values, the source holds several entries; their conditions need not be identical. Identical values can stand only once.

What was measured:
Assay type in all cases: physicochemical
[1] = Stability of crystals obtained in Example 2 (statement only)
[2] = Test 1: storage stability of lansoprazole crystals, content by HPLC; settings: for Residual ratio after stored for 6 months at 40° C.: [(Content after stored for 6 months at 40° C.)/(Initial Content)]×100; for Initial Content / Content after stored for 6 months at 40° C.: content of lansoprazole in crystals, wt %, HPLC; for Initial Content: before storage
Source text: The stability of the crystals of the solvate of lansoprazole (hereinafter, referred to as lansoprazole (1)) obtained by vacuum drying the wet crystals of the solvate of ethanol-water of lansoprazole obtained according to the method in EXAMPLE 2, was compared to the stability of the white crystals of lansoprazole (hereinafter, referred to as lansoprazole (2)) obtained according to the method in EXAMPLE 3.
Herein, the “content” in Table 1 refers to the content of lansoprazole in lansoprazole crystals expressed in wt %, and was measured by HPLC technique (analyzed under each of following conditions: for (1), Column: NOVA PAK, C18, 3.9×150 mm, Temperature: constant temperature of around 25° C., Mobile phase: solution prepared by adjusting the pH of methanol:water:triethylamine (weight ratio=60:40:1) with phosphoric acid to 7.0, Flow rate: 0.5 ml/min, Detector: UV 285 nm, and for (2), Column: CAPCELL PAC, C18, SG120, 4.6×250 mm, Temperature: constant temperature of around 25° C., Mobile phase: solution prepared by adjusting the pH of acetonitrile:water:triethylamine (weight ratio=40:60:1) with phosphoric acid to 7.0, Flow rate: 1 ml/min, Detector: UV 285 nm). The “residual ratio after stored for 6 months at 40° C.” was calculated by [(Content after stored for 6 months at 40° C.)/(Initial Content)]×100 (%).

[3] = Test 2: crystal stability by coloration, absorbance (390 nm) of crystals dissolved in dimethylformamide; settings: for Absorbance of solution of crystals just after preparation / Absorbance of solution of crystals after stored at 60° C. for 15 days: 1 g crystals in 10 mL dimethylformamide; for Change in Absorbance: after 60° C. for 15 days minus just after preparation
Experimental: In the method according to EXAMPLE 3, the amount of ethanol added to the mixed solution in which the wet crystals of the solvate of ethanol-water of lansoprazole are suspended was changed, and the stability of thus obtained crystals was compared.
The crystals obtained from each of mixed solution systems shown in Table 2 below were each dissolved in dimethylformamide just after the preparation and after stored at 60° C. for 15 days, and the absorbance (390 nm) of thus obtained solutions of crystals was measured. The degree of coloration was compared as an indicator of the crystal stability.
The absorbance of the solution prepared by dissolving 1 g of crystals into 10 mL of dimethylformamide was measured with the use of a spectral photometer (Jasco No. 0214332).
In addition, the pH of each mixed solution in which crystals are suspended was adjusted to about 9 with an aqueous ammonia solution.

| Residual ratio after stored for 6 months at 40° C. [2] | Initial Content [2] | Content after stored for 6 months at 40° C. ([2]; 6 months at 40° C.) | Absorbance of solution of crystals just after preparation [3] | Absorbance of solution of crystals after stored at 60° C. for 15 days [3] | Change in Absorbance [3] | also measured | Structure (SMILES) |
| --- | --- | --- | --- | --- | --- | --- | --- |
| – | – | – | – | – | – | stability of obtained crystals [1]: stable | Cc1c(OCC(F)(F)F)ccnc1C[S+]([O-])c1nc2ccccc2[nH]1 (racemic) [lansoprazole I type crystal, (+/−)-2-(((3-methyl-4-(2,2,2-trifluoroethoxy)-2-pyridyl)methyl)sulfinyl)benzimidazole] |
| 91.3% and 84.7% and 86.8% | 99.2% and 99.3% and 99.1% | 90.6% and 84.1% and 86.0% | – | – | – | – | Cc1c(OCC(F)(F)F)ccnc1C[S+]([O-])c1nc2ccccc2[nH]1 (racemic) [lansoprazole (1), (+/−)-2-(((3-methyl-4-(2,2,2-trifluoroethoxy)-2-pyridyl)methyl)sulfinyl)benzimidazole] |
| – | – | – | 0.056 | 0.964 | 0.908 | – | Cc1c(OCC(F)(F)F)ccnc1C[S+]([O-])c1nc2ccccc2[nH]1 (racemic) [About 40:1, (+/−)-2-(((3-methyl-4-(2,2,2-trifluoroethoxy)-2-pyridyl)methyl)sulfinyl)benzimidazole] |
| ~100% | 99.7% and 99.8% | 99.6% and 99.8% | – | – | – | stability of crystal compared to lansoprazole (1) ([2]; 6 months at 40° C.): more excellent stability; Residual ratio after stored for 6 months at 40° C. ([2]; listed as (2)): 99.9% and 100.0% | Cc1c(OCC(F)(F)F)ccnc1C[S+]([O-])c1nc2ccccc2[nH]1 (racemic) [lansoprazole (2), (+/−)-2-(((3-methyl-4-(2,2,2-trifluoroethoxy)-2-pyridyl)methyl)sulfinyl)benzimidazole] |
| – | – | – | 0.046 | 1.703 | 1.657 | – | Cc1c(OCC(F)(F)F)ccnc1C[S+]([O-])c1nc2ccccc2[nH]1 (racemic) [Ethanol non-added, (+/−)-2-(((3-methyl-4-(2,2,2-trifluoroethoxy)-2-pyridyl)methyl)sulfinyl)benzimidazole] |
| – | – | – | 0.054 | 1.135 | 1.081 | – | Cc1c(OCC(F)(F)F)ccnc1C[S+]([O-])c1nc2ccccc2[nH]1 (racemic) [About 160:1, (+/−)-2-(((3-methyl-4-(2,2,2-trifluoroethoxy)-2-pyridyl)methyl)sulfinyl)benzimidazole] |
